The record followed here is patent publication US7674819B2 (Warner-Lambert Company LLC, priority 2005, dated 2010).

Structures are written as SMILES. Residue numbers refer to the chain shown, from its start. Where two headings read alike, the source gives them in different places.

For one assay, the target named is T1, hAR (Homo sapiens, UniProt P10275).
T1 sequence (P10275 1-920): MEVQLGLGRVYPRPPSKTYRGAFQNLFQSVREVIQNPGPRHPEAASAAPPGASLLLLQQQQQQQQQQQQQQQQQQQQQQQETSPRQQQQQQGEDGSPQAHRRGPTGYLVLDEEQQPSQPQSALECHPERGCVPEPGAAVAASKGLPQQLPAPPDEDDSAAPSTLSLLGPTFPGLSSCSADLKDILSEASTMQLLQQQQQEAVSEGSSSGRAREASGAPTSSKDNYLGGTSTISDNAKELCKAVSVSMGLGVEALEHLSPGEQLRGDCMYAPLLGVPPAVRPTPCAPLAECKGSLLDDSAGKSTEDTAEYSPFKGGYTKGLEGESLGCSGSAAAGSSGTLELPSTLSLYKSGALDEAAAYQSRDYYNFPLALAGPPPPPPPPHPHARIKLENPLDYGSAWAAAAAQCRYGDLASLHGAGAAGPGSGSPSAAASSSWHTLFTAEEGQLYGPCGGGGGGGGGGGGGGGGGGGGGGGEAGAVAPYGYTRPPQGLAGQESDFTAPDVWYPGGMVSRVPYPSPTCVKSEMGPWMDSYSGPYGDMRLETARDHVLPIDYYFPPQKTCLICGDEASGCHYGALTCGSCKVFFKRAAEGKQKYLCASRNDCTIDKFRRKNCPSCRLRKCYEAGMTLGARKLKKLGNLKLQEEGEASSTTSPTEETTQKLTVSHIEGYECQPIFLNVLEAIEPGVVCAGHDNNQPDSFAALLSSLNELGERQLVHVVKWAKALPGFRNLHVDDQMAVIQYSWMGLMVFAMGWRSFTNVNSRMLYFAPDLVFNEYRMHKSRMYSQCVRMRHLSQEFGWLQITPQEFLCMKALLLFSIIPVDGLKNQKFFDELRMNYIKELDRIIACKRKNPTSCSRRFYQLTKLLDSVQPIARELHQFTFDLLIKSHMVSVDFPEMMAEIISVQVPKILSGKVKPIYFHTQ
The assay is described as follows: Competitive binding of 3H-DHT to baculovirus/Sf9 generated hAR extracts. Particulars: one hour at 4° C., mean of multiple tests. As for the experimental part:
The description below describes how the assay was carried out.
Competitive binding analysis was performed on baculovirus/Sf9 generated hAR extracts in the presence or absence of different concentrations of test agent and a fixed concentration of ^3H-dihydrotestosterone (^3H-DHT) as tracer. This binding assay method is a modification of a protocol previously described (Liao S., et. al. J. Steroid Biochem. 20:11-17 1984). Briefly, progressively decreasing concentrations of compounds are incubated in the presence of hAR extract (Chang et al. P.N.A.S. Vol. 89, pp. […], 1992), hydroxylapatite, and 1 nM^3H-DHT for one hour at 4° C. Subsequently, the binding reactions are washed three times to completely remove excess unbound ^3H-DHT. hAR bound ^3H-DHT levels are determined in the presence of compounds (i.e. competitive binding) and compared to levels bound when no competitor is present (i.e. maximum binding). Compound binding affinity to the hAR is expressed as the concentration of compound at which one half of the maximum binding is inhibited.

The next assay has as its target T2, androgen receptor (Homo sapiens, UniProt P10275).
T2 sequence (P10275 1-920 Q868H): T1 sequence (P10275 1-920) with Q868H
The assay is described as follows: AR Antagonist Cell Assay (MDA-MB453-MMTV clone 54-19, luciferase reporter). It counts as cell-based. Particulars: inhibition of induction by DHT (final concentration at 100 μM), 17 hr, compound 0.32-1000 nM, mean of multiple tests. The procedure:
The compounds ability to antagonize the effects of androgen on the androgen receptor were determined in a whole cell assay as described immediately below.
Experimental Procedure for AR Antagonist Cell Assay
This cell line is a stable transfected cell line with MDA-MB453 cell background (a human breast tumor cell line expressing androgen receptor). A MMTV minimal promoter containing ARE was first cloned in front of a firefly luciferase reporter gene. Then the cascade was cloned into transfection vector pUV120puro. […] Puromycin resistant stable cell line was selected.
Cell Culture Media and Reagents:
Plating medium: DMEM (phenol red free), 10% charcoal treated HyClone serum, 1% L-glutamine
Assay medium: DMEM (phenol red free), 1% charcoal treated HyClone serum, 1% L-glutamine, 1% penicillin/streptomycin
Cells are maintained in culture medium, splitting cells when they reach 80-90% confluence
To test compounds, 10,000 cells/well are plated to opaque 96 cell culture plate in 100 ul/well plating medium, culture for overnight at 37° C. in cell culture incubator
Add 10 ul/well freshly prepared DHT (final concentration at […]) to each well, incubate at 37° C. for 17 hr (overnight)
Add 50 ul/well 3× luciferase buffer, incubate at room temperature for 5 minutes, then count on Luminometer
The results are reported as the mean of multiple tests described below (the numbers of tests are indicated in the footnote). N.D. denotes that the compound was not tested.

[1] abbreviates: concentration at which one half of maximum binding of 1 nM 3H-DHT to hAR is inhibited, read-out: IC50.
Setting [2] is: IC50, concentration at which one half of maximum binding of 1 nM 3H-DHT to hAR is inhibited.

Regarding `C[C@@H](c1ccccc1)N1CC(C)(C)C(Oc2ccc(C#N)c(C(F)(F)F)c2)C1=O` (mixture of isomers) [Example 69, (+)-4-[4,4-Dimethyl-2-oxo-1-(1-phenyl-ethyl)-pyrrolidin-3-yloxy]-2-trifluoromethyl-benzonitrile], the values for the IC50 on hAR (setting [1]) and on androgen receptor (read-out: IC50) were 0.258 µM and 0.331 µM, respectively.

As to `COC(=O)c1cccc(CN2CC(C)(C)C(Oc3ccc(C#N)c(C(F)(F)F)c3)C2=O)c1` (racemic) [Example 25, (±)-3-[3-(4-Cyano-3-trifluoromethyl-phenoxy)-4,4-dimethyl-2-oxo-pyrrolidin-1-ylmethyl]-benzoic acid methyl ester], the IC50 stood at 0.048 µM on hAR (setting [2]) and 0.107 µM at androgen receptor (read-out: IC50).

Consider `C[C@@H](c1ccc(F)cc1)N1CC(C)(C)[C@@H](Oc2ccc(C#N)c(C(F)(F)F)c2)C1=O` (racemic) [Example 71, (±)-4-{1-[1-(4-Fluoro-phenyl)-ethyl]-4,4-dimethyl-2-oxo-pyrrolidin-3-yloxy}-2-trifluoromethyl-benzonitrile], for which the IC50 came to 0.104 µM on hAR (setting [1]) and 0.006 µM on androgen receptor.

For `CCCC(C)N1CC(C)(C)C(Oc2ccc(C#N)c(C(F)(F)F)c2)C1=O` (racemic) [Example 72, (±)-4-[4,4-Dimethyl-1-(1-methyl-butyl)-2-oxo-pyrrolidin-3-yloxy]-2-trifluoromethyl-benzonitrile], the IC50 on hAR (setting [2]) stood at 0.203 µM; against androgen receptor, 0.007 µM.

As to `CC1(C)CN(Cc2ccc(O)cc2)C(=O)C1Oc1ccc(C#N)c(C(F)(F)F)c1` (single isomer, unassigned) [Example 9, 4-[1-(4-Hydroxy-benzyl)-4,4-dimethyl-2-oxo-pyrrolidin-3-yloxy]-2-trifluoromethyl-benzonitrile], the IC50 at hAR (setting [2]) is 0.018 µM; against androgen receptor, 0.046 µM.

Consider `CC1(C)CN(S(C)(=O)=O)C(=O)C1Oc1ccc(C#N)c(C(F)(F)F)c1` (single isomer, unassigned) [Example 100, 4-(1-Methanesulfonyl-4,4-dimethyl-2-oxo-pyrrolidin-3-yloxy)-2-trifluoromethyl-benzonitrile], for which the IC50 on hAR (setting [2]) and against androgen receptor was 0.012 µM in each case.

Turning to `CSCN1CC(C)(C)C(Oc2ccc(C#N)c(C(F)(F)F)c2)C1=O` (single isomer, unassigned) [Example 100B, 4-(4,4-Dimethyl-1-methylsulfanylmethyl-2-oxo-pyrrolidin-3-yloxy)-2-trifluoromethyl-benzonitrile], the IC50 on hAR (setting [2]) was 0.076 µM; on androgen receptor it was 0.024 µM.

`CC1(C)CN(S(=O)(=O)C2CC2)C(=O)C1Oc1ccc(C#N)c(C(F)(F)F)c1` (single isomer, unassigned) [Example 100C, 4-(1-Cyclopropanesulfonyl-4,4-dimethyl-2-oxo-pyrrolidin-3-yloxy)-2-trifluoromethyl-benzonitrile]: the 50% inhibitory concentration (IC50) on hAR (setting [2]) was 0.059 µM; against androgen receptor it was 0.038 µM.

For the compound `CC1(C)CN(Cc2ccccc2)C(=O)C1Oc1ccc(C#N)c(C(F)(F)F)c1` (single isomer, unassigned; (+)) [Example 6, (+)-4-(1-Benzyl-4,4-dimethyl-2-oxo-pyrrolidin-3-yloxy)-2-trifluoromethyl-benzonitrile], the values for the IC50 at hAR (setting [2]) and at androgen receptor were 0.031 µM and 0.136 µM, respectively.

With `CC1(C)CN(Cc2cccc(O)c2)C(=O)C1Oc1ccc(C#N)c(C(F)(F)F)c1` (single isomer, unassigned; (+)) [Example 14, (+)-4-[1-(3-Hydroxy-benzyl)-4,4-dimethyl-2-oxo-pyrrolidin-3-yloxy]-2-trifluoromethyl-benzonitrile], the IC50 at hAR (setting [2]) amounted to 0.023 µM; at androgen receptor, 0.099 µM.

For the compound `COc1cccc(C(C)N2CC(C)(C)C(Oc3ccc(C#N)c(C(F)(F)F)c3)C2=O)c1` (single isomer, unassigned; (+)) [Example 23, (+)-4-{1-[1-(3-Methoxy-phenyl)-ethyl]-4,4-dimethyl-2-oxo-pyrrolidin-3-yloxy}-2-trifluoromethyl-benzonitrile], the IC50 at hAR (setting [2]) came out at 0.064 µM; against androgen receptor, 0.058 µM.

For `CC1(C)CN(S(C)(=O)=O)C(=O)C1Oc1ccc(C#N)c(C(F)(F)F)c1` (single isomer, unassigned; (+)) [Example 96, (+)-4-(1-Methanesulfonyl-4,4-dimethyl-2-oxo-pyrrolidin-3-yloxy)-2-trifluoromethyl-benzonitrile], the half-maximal inhibitory concentration (IC50) worked out at 0.012 µM at hAR (concentration at which one half of maximum binding of 1 nM 3H-DHT to hAR is inhibited) and 0.036 µM on androgen receptor.

Consider `CCCC(=O)N1CC(C)(C)C(Oc2ccc(C#N)c(C(F)(F)F)c2)C1=O` (single isomer, unassigned; (+)) [Example 103, (+)-4-(1-Butyryl-4,4-dimethyl-2-oxo-pyrrolidin-3-yloxy)-2-trifluoromethyl-benzonitrile (single enantiomer)], for which the IC50 at hAR (setting [1]) worked out at 0.13 µM; at androgen receptor (read-out: IC50), 0.125 µM.

For the compound `CC1(C)CN(C(=O)c2ccccc2)C(=O)C1Oc1ccc(C#N)c(C(F)(F)F)c1` (single isomer, unassigned; (+)) [Example 105, (+)-4-(1-Benzoyl-4,4-dimethyl-2-oxo-pyrrolidin-3-yloxy)-2-trifluoromethyl-benzonitrile], the results for the IC50 on hAR (setting [1]) and at androgen receptor were 0.252 µM and 0.022 µM, respectively.
